Reference: article PMC7932537, “Quantitative profiling of protease specificity” (PLoS Computational Biology, 2021)

System: MMP-2
Experiment: Substrate phage display with NGS: relative probability (RP) of P3-P1' tetramer clusters
Format: biochemical, human
Settings: for avg_RP: MMP2 - no binning; for relative_probability: tetramer clusters unique to the MMP-2 selectome, MMP-2 RP
[1] = average relative probability of the tetramer, redundant tetramers averaged out
[2] = average relative probability of the P3-P1' tetramer, redundant tetramers have been averaged out
[3] = average relative probability (RP) of the P3-P1' tetramer, redundant tetramers have been averaged out

Substance: PSTL
- avg_RP [1]: 30.1803

Substance: ARML
- avg_RP [2]: 2.9901

Substance: PAYL
- avg_RP [3]: 33.0829

Substance: MSSL
- avg_RP [2]: 27.4466

Substance: WRAF
- avg_RP [1]: 9.8395

Substance: HMAL
- avg_RP [3]: 5.2214

Substance: PSRM
- avg_RP [1]: 27.1397

Substance: YSHL
- avg_RP [3]: 14.1084

Substance: PKGM
- avg_RP [1]: 31.666

Substance: PWSV
- avg_RP [1]: 0.3793

Substance: ARFL
- avg_RP [2]: 8.5771

Substance: AWMM
- avg_RP [3]: 1.3213

Substance: WHGL
- avg_RP [1]: 0.5588

Substance: ARSM
- avg_RP [2]: 12.2991

Substance: AWSL
- avg_RP [1]: 7.006

Substance: VAFL
- avg_RP [3]: 20.6554

Substance: FWHL
- avg_RP [2]: 0

Substance: VNWM
- avg_RP [1]: 16.277

Substance: PQAV
- avg_RP [3]: 23.1021

Substance: PDQL
- avg_RP [3]: 0.2814

Substance: MASL [P3-P1' tetramer cluster]
- avg_RP [2]: 31.6834
- relative_probability: 31.68

Substance: VYSL
- avg_RP [2]: 16.838

Substance: WAPL
- avg_RP [2]: 23.9342

Substance: VGHL
- avg_RP [3]: 31.6783

Substance: AQPL
- avg_RP [2]: 14.4283

Substance: MWHL
- avg_RP [2]: 0.2013

Substance: SAYL
- avg_RP [3]: 11.6614

Substance: MLHM
- avg_RP [2]: 4.7134

Substance: MLSL
- avg_RP [2]: 2.2282

Substance: VLAL
- avg_RP [2]: 13.5229

Substance: AIHL
- avg_RP [1]: 13.4941

Substance: VRQL
- avg_RP [1]: 16.7722

Substance: YRGL
- avg_RP [2]: 5.4447

Substance: VSYL
- avg_RP [2]: 20.2936

Substance: PSFL
- avg_RP [2]: 29.537

Substance: PLML
- avg_RP [1]: 25.0435

Substance: LMAL
- avg_RP [3]: 15.4189

Substance: LRML
- avg_RP [1]: 9.0498

Substance: MALL
- avg_RP [3]: 16.9256

Substance: YAAL [P3-P1' tetramer cluster]
- relative_probability: 30.40

Substance: FGNL
- avg_RP [2]: 26.0275

Substance: SGAL
- avg_RP [1]: 13.4712

Substance: GYAL
- avg_RP [1]: 0.5867

Substance: PVPM
- avg_RP [1]: 31.3308

Substance: VAPL
- avg_RP [2]: 30.036

Substance: MSHL
- avg_RP [1]: 24.6165

Substance: VRHV
- avg_RP [1]: 9.5401

Substance: YFSM
- avg_RP [2]: 0.0661

Substance: PSAL [P3-P1' tetramer cluster]
- avg_RP [1]: 36.1873
- relative probability (RP) (tetramer probability in MMP2 set / naive library, 200 nM protease, 2 h, 37°C): 36.1873
- relative probability (RP) (tetramer projected onto MMP-2 cleavage sites determined by Prudova et al. (2010)): 36.19

Substance: YSNL
- avg_RP [2]: 25.2832

Substance: ARNL
- avg_RP [1]: 24.6947

Substance: VYLL
- avg_RP [1]: 1.2276

Substance: VLWL
- avg_RP [2]: 11.1539

Substance: PIPL
- avg_RP [2]: 33.1236

Substance: GAKL
- avg_RP [3]: 0.1271

Substance: WQGL
- avg_RP [1]: 12.939

Substance: PWNY
- avg_RP [1]: 16.9576

Substance: PYHL
- avg_RP [1]: 27.2418

Substance: SAWL
- avg_RP [2]: 18.9346

Substance: GHNL
- avg_RP [3]: 0.2721

Substance: VFSM
- avg_RP [2]: 2.2653

Substance: PYTL
- avg_RP [2]: 16.827

Substance: WSGM
- avg_RP [2]: 18.3143

Substance: IYEL
- avg_RP [2]: 0.2382

Substance: PVFL
- avg_RP [1]: 21.7568

Substance: PGRL
- avg_RP [1]: 29.6024

Substance: VRSI
- avg_RP [1]: 11.7832

Substance: PWGL
- avg_RP [3]: 31.3204

Substance: WLNL
- avg_RP [2]: 0.1218

Substance: PLNW
- avg_RP [2]: 28.8158

Substance: ANMI
- avg_RP [3]: 1.6014

Substance: AWAL
- avg_RP [3]: 14.3616

Substance: AYNF
- avg_RP [1]: 6.7246

Substance: LSNL
- avg_RP [2]: 32.5007

Substance: PRWI
- avg_RP [3]: 30.8879

Substance: VNFL
- avg_RP [3]: 7.2989

Substance: PRWL
- avg_RP [1]: 34.1809

Substance: WRGL
- avg_RP [1]: 23.375

Substance: INFL
- avg_RP [3]: 7.787

Substance: AQML
- avg_RP [2]: 8.608

Substance: TLNL
- avg_RP [2]: 2.7643

Substance: NARL
- avg_RP [3]: 12.6743

Substance: TLHL
- avg_RP [2]: 2.4714

Substance: PNWL
- avg_RP [2]: 26.5667

Substance: PSGW
- avg_RP [1]: 32.6048

Substance: PFMI
- avg_RP [3]: 4.6361

Substance: PLTI
- avg_RP [2]: 16.7446

Substance: PMSL
- avg_RP [3]: 32.4868

Substance: PAWL
- avg_RP [3]: 34.876

Substance: SYWL
- avg_RP [2]: 0.9791

Substance: VYGL
- avg_RP [1]: 17.3788

Substance: PSGM
- avg_RP [2]: 32.7604

Substance: ARQL
- avg_RP [2]: 3.2139

Substance: PDFL
- avg_RP [2]: 1.02

Substance: LAHI
- avg_RP [2]: 25.9365

Substance: SLNL
- avg_RP [1]: 3.3019

Substance: SGSL
- avg_RP [2]: 7.2251

Substance: WQNL
- avg_RP [2]: 6.2916

Substance: THHL
- avg_RP [3]: 0.3701

Substance: YMGL
- avg_RP [2]: 0.0982

Substance: PVNM
- avg_RP [3]: 30.0312

Substance: SMYL
- avg_RP [3]: 1.2279

Substance: PHSM
- avg_RP [2]: 24.6739

Substance: WRNL
- avg_RP [1]: 6.7583

Substance: SGPL
- avg_RP [2]: 2.1571
